Converted amounts (≈) assume the structure as drawn. “And” between values parts separate entries of the source, which are not always exact repeats. Equal values may be shown once. Read-outs that look alike come from different tables or passages of the source. Residues, ends and D or L forms follow the SMILES beside them.
Columns and labels:
P. aeruginosa ATCC 27853 [1] = format: cell-based, Pseudomonas aeruginosa
In short: (§1)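 Each strain is tested in cation-adjusted Mueller–Hinton broth using the micro-dilution technique, and growth inhibition gives the MIC.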

[2] = system: P. aeruginosa FADDI-PA025; format: cell-based, Pseudomonas aeruginosa
In short: as §1

[3] = system: P. aeruginosa FADDI-PA038; format: cell-based, Pseudomonas aeruginosa
In short: as §1

[4] = system: K. pneumoniae FADDI-KP065; format: cell-based, Klebsiella pneumoniae
In short: as §1

[5] = system: K. pneumoniae FADDI-KP032; format: cell-based, Klebsiella pneumoniae
In short: as §1

[6] = Acute toxicity in mice (maximum tolerated dose, IV bolus); format: in vivo, mouse; settings: mouse, in vivo, iv, single IV bolus dose, replicates 1-4; read-out: MTD, single replicate
Procedure: (§2) Lipopeptide solutions were prepared in 0.9% saline and stored at 4 °C before use. Swiss mice (female, 7-week-old, 22–28 g) were used in the study. A mouse was administered an intravenous bolus of the lipopeptide (mg/kg free base) through a lateral tail vein (≤0.1 mL). After the injection, the mouse was released back into the cage and monitored for clinical signs of toxicity from 0 to 24 h after injection as follows: every 10 min in the first 2 h, every half hour from 2 to 4 h, every hour from 4 to 12 h, and every 2 h from 12 to 24 h.

Swiss mice = assay: as above; format: in vivo, mouse; settings: replicates 1-4
Procedure: as §2

A. baumannii ATCC 19606 = format: cell-based, Acinetobacter baumannii
In short: as §1

A. baumannii FADDI-AB030 = format: cell-based, Acinetobacter baumannii
In short: as §1

A. baumannii FADDI-AB034 = format: cell-based, Acinetobacter baumannii
In short: as §1

Swiss mice, kidney = assay: Nephrotoxicity in mice (kidney histopathology); format: in vivo, mouse; settings: for Kidney histopathology (SQS Score): 72 mg/kg/d subcutaneously in six divided doses every 2 h, n = 3; for Kidney histopathology, mice with the SQS score: mouse, in vivo
In short: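 Female Swiss mice (7-week-old, 22–28 g) received lipopeptides in saline either s.c. at 12 mg/kg ×6 every 2 h (total 72 mg/kg, n = 3) or i.p. at 20 or 25 mg/kg ×6 every 2 h (total 120 mg/kg, n = 6; 150 mg/kg, n = 3). Right kidney collected 20 h after last dose, fixed in 10% buffered formalin (pH 7.4), histology scored blinded.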

P. aeruginosa ATCC 27853 [7] = assay: Neutropenic mouse bloodstream infection model; format: in vivo; settings: single IV dose 4 mg/kg; for Log10 CFU/mL blood at 4 h, Mean / Δlog10 CFU/mL blood (mean) / Log10 CFU/mL blood at 4 h, single mouse: 4 h; for Δlog10 CFU/mL blood (mean): treated minus control, mean of replicates; for Delta Log10 CFU/mL blood at 4 h, single mouse: treated mouse minus mean of vehicle mice
In short: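 Female Swiss mice made neutropenic with cyclophosphamide (150 mg/kg day −4, 100 mg/kg day −1), infected IV with 50 µL of 4 × 10^8 CFU/mL. Lipopeptide 4 mg/kg (free base) IV at 2 h post-inoculation, n = 3. Efficacy = Δlog10 CFU/mL blood versus saline at 4 h post-dose.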

[8] = Distribution, accumulation and metabolism in mouse kidneys (ME-SALDI-MS imaging, histology); format: in vivo; settings: 10 μmol/kg SC; for kidney histology, SQS scores: 6 doses Day 1 and 3 doses Day 2; for level at time molar: female, Swiss, mouse, in vivo, 10 umol/kg, 6 doses Day 1 and 3 doses Day 2, 2 h after last dose, read-out: Concentration in the kidney cortex region
Procedure: At 2 h after the last dose on Day 2, mice were rapidly euthanized. The left kidney was collected, flash-frozen in liquid nitrogen, and stored at -80 C for MS imaging analysis. The right kidney was fixed in 10% formalin for histological examination (Histopathology and Organ Pathology Unit at the University of Melbourne). The level of histological damage to the kidneys was graded as previously described. […] A total of 1 μL was spotted onto electrochemically etched, porous-silicon semiconductor substrates for desorption/ionization on silicon (DIOS)[39]. […] For lipopeptide distribution in mouse kidneys, serially sectioned 8-μm frozen slices of the kidney were loaded onto DIOS substrates and coated with a thin layer of α-CHCA using a matrix sprayer (TM-Sprayer, HTX) for MSI analysis. […] Mounted tissue was scanned for imaging alignment (Epson Perfection […]) and calibrated as previously described. Resulting polymyxin maps were visualized and normalized against the total ion current (TIC) of each section using IonView software (Shimadzu). Lipopeptide accumulation in mouse kidneys was determined by simultaneous […] analysis of kidney tissue from treated animals and serial dilutions of the drug deposited on control kidney tissue. […] The signal intensities were compared to the corresponding concentration standard curve to calculate the concentration of lipopeptide present. Putative metabolites in the kidneys treated with lipopeptides were identified by […]. Control kidney sections were used to differentiate lipopeptide metabolites from endogenous metabolites and MS/MS data from lipopeptide standards were used to differentiate lipopeptide metabolites from the parent ion generated via CID processed in the acquisition software (MALDI Solutions, Shimadzu). Levels of accumulated lipopeptide metabolites were determined by normalization to the parent ion in MSI data.

Compound	MIC P. aeruginosa ATCC 27853 (P. aeruginosa ATCC 27853 [1]; ATCC 27853) [µg/mL]	MIC P. aeruginosa FADDI-PA025 ([2]; FADDI-PA025) [µg/mL]	MIC P. aeruginosa FADDI-PA038 ([3]; FADDI-PA038) [µg/mL]	MIC K. pneumoniae FADDI-KP065 ([4]; FADDI-KP065) [µg/mL]	MIC K. pneumoniae FADDI-KP032 ([5]; FADDI-KP032) [µg/mL]	MTD [6] [mg/kg]	MTD, single replicate (Swiss mice)	MIC A. baumannii ATCC 19606 (A. baumannii ATCC 19606; ATCC 19606) [µg/mL]	MIC A. baumannii FADDI-AB030 (A. baumannii FADDI-AB030; FADDI-AB030) [µg/mL]	MIC A. baumannii FADDI-AB034 (A. baumannii FADDI-AB034; FADDI-AB034) [µg/mL]	Kidney histopathology (SQS Score) (Swiss mice, kidney)	Kidney histopathology, mice with the SQS score (Swiss mice, kidney)	Log10 CFU/mL blood at 4 h, Mean (P. aeruginosa ATCC 27853 [7]) [Log10 CFU/mL blood]	Log10 CFU/mL blood at 4 h, single mouse (P. aeruginosa ATCC 27853 [7]; 4 mg/kg)	Delta Log10 CFU/mL blood at 4 h, single mouse (P. aeruginosa ATCC 27853 [7]; 4 mg/kg)	Δlog10 CFU/mL blood (mean) (P. aeruginosa ATCC 27853 [7]; 4 mg/kg) [log10 CFU/mL blood]	kidney histology, SQS scores [8]	level at time molar [8] [µM]	other results
CCCCCC(=O)N[C@@H](CCN)C(=O)N[C@H](C(=O)N[C@@H](CN)C(=O)N[C@H]1CCNC(=O)[C@H]([C@@H](C)O)NC(=O)[C@H](CCN)NC(=O)[C@H](CCN)NC(=O)[C@H](CC)NC(=O)[C@@H](CC(C)C)NC(=O)[C@H](CCN)NC1=O)[C@@H](C)O [Lipopeptide F342] (HELM PEPTIDE1{[CCCCCC(=O)[*:2]].[Dab].T.[NC[C@H](N[*:1])C(=O)[*:2]].[Dab].[Dab].[dL].[Abu].[Dab].[Dab].T}$PEPTIDE1,PEPTIDE1,5:R3-11:R2$$$V2.0)	0.5 (≈ 0.461 µM)	2 (≈ 1.84 µM)	1 (≈ 0.921 µM)	0.5 (≈ 0.461 µM)	0.25 (≈ 0.23 µM)	20	18.4 mg/kg	2 (≈ 1.84 µM)	1 (≈ 0.921 µM)	1 (≈ 0.921 µM)	0 (SQS 0 = no significant change (overall score, <1))	3/3	7.44	7.29 Log10 CFU/mL blood and 7.60 Log10 CFU/mL blood	0.0179 Log10 CFU/mL blood and 0.33 Log10 CFU/mL blood				MIC, No Survanta (P. aeruginosa ATCC 27853 [1]; ATCC 27853): 1 µg/mL (≈ 0.921 µM); Δlog10 CFU/mL blood (mean) (P. aeruginosa ATCC 27853 [7]): 0.17 log10 CFU/mL blood
CC[C@@H]1NC(=O)[C@@H](CC(C)C)NC(=O)[C@H](CCN)NC(=O)[C@@H](NC(=O)[C@H](CN)NC(=O)[C@@H](NC(=O)[C@H](CCN)NC(=O)c2ccccc2)[C@@H](C)O)CCNC(=O)[C@H]([C@@H](C)O)NC(=O)[C@H](CCN)NC(=O)[C@H](CCN)NC1=O [Lipopeptide F379] (HELM PEPTIDE1{[O=C(c1ccccc1)[*:2]].[Dab].T.[NC[C@H](N[*:1])C(=O)[*:2]].[Dab].[Dab].[dL].[Abu].[Dab].[Dab].T}$PEPTIDE1,PEPTIDE1,5:R3-11:R2$$$V2.0)						26	23 mg/kg and 21.3 mg/kg and 16 mg/kg						5.27	5.36 Log10 CFU/mL blood and 5.17 Log10 CFU/mL blood	-2.58 Log10 CFU/mL blood and -2.77 Log10 CFU/mL blood	−2.67			MIC P. aeruginosa ATCC 27853 (P. aeruginosa ATCC 27853 [1]): 1 µg/mL (≈ 0.916 µM); MIC P. aeruginosa FADDI-PA025 ([2]; MDR clinical isolate): >32 µg/mL; MIC P. aeruginosa FADDI-PA038 ([3]; carbapenem-resistant isolate): 4 µg/mL (≈ 3.67 µM); MIC K. pneumoniae FADDI-KP065 ([4]; carbapenem-resistant isolate): 2 µg/mL (≈ 1.83 µM); MIC K. pneumoniae FADDI-KP032 ([5]; carbapenem-resistant isolate): 2 µg/mL (≈ 1.83 µM); MIC A. baumannii ATCC 19606 (A. baumannii ATCC 19606): 8 µg/mL (≈ 7.33 µM); MIC A. baumannii FADDI-AB030 (A. baumannii FADDI-AB030; carbapenem-resistant isolate): 2 µg/mL (≈ 1.83 µM); MIC A. baumannii FADDI-AB034 (A. baumannii FADDI-AB034; carbapenem-resistant isolate): 8 µg/mL (≈ 7.33 µM)
CC[C@@H]1NC(=O)[C@@H](CC(C)C)NC(=O)[C@H](CCN)NC(=O)[C@@H](NC(=O)[C@H](CN)NC(=O)[C@@H](NC(=O)[C@H](CCN)NC(=O)c2ccc(F)cc2Cl)[C@@H](C)O)CCNC(=O)[C@H]([C@@H](C)O)NC(=O)[C@H](CCN)NC(=O)[C@H](CCN)NC1=O [Lipopeptide F449] (HELM PEPTIDE1{[O=C(c1ccc(F)cc1Cl)[*:2]].[Dab].T.[NC[C@H](N[*:1])C(=O)[*:2]].[Dab].[Dab].[dL].[Abu].[Dab].[Dab].T}$PEPTIDE1,PEPTIDE1,5:R3-11:R2$$$V2.0)	0.5 (≈ 0.437 µM)	2 (≈ 1.75 µM)	1 (≈ 0.874 µM)	0.25 (≈ 0.219 µM)	0.25 (≈ 0.219 µM)			4 (≈ 3.5 µM)	1 (≈ 0.874 µM)	1 (≈ 0.874 µM)	0 (SQS 0 = no significant change (overall score, <1))	3/3	5.26	5.17 Log10 CFU/mL blood and 5.18 Log10 CFU/mL blood and 5.44 Log10 CFU/mL blood	-2.41 Log10 CFU/mL blood and -2.40 Log10 CFU/mL blood and -2.14 Log10 CFU/mL blood	−2.32			
CC[C@H](C)CCCCC(=O)N[C@@H](CCN)C(=O)N[C@H](C(=O)N[C@@H](CCN)C(=O)N[C@H]1CCNC(=O)[C@H]([C@@H](C)O)NC(=O)[C@H](CCN)NC(=O)[C@H](CCN)NC(=O)[C@H](CC(C)C)NC(=O)[C@@H](CC(C)C)NC(=O)[C@H](CCN)NC1=O)[C@@H](C)O [colistin A] (HELM PEPTIDE1{[CC[C@H](C)CCCCC(=O)[*:2]].[Dab].T.[Dab].[Dab].[Dab].[dL].L.[Dab].[Dab].T}$PEPTIDE1,PEPTIDE1,5:R3-11:R2$$$V2.0)																	+5 (SQS + 5 = severe damage (overall score, >60))	86.7	
CC[C@H](C)CCCCC(=O)N[C@@H](CCN)C(=O)N[C@H](C(=O)N[C@@H](CCN)C(=O)N[C@H]1CCNC(=O)[C@H]([C@@H](C)O)NC(=O)[C@H](CCN)NC(=O)[C@H](CCN)NC(=O)[C@H](CC(C)C)NC(=O)[C@@H](Cc2ccccc2)NC(=O)[C@H](CCN)NC1=O)[C@@H](C)O [polymyxin B1] (HELM PEPTIDE1{[CC[C@H](C)CCCCC(=O)[*:2]].[Dab].T.[Dab].[Dab].[Dab].[dF].L.[Dab].[Dab].T}$PEPTIDE1,PEPTIDE1,5:R3-11:R2$$$V2.0)																	+5 (SQS + 5 = severe damage (overall score, >60))	38.2	

From PMC8956739, “A synthetic lipopeptide targeting top-priority multidrug-resistant Gram-negative pathogens” (Nature Communications, 2022)
